Measurements from patent US8569487B2, “Pyridazine compound and use thereof” (priority 2006, dated 2013).
Where two headings read alike, the source gives them in different places.

How the values were obtained:
[1] = tested on: HCV genotype 1b (Con-1/lucneo) replicon; assay type: cell-based
Procedure: (§1) HCV genotype 1b (Con-1/lucneo) and 1a (H77/neo) replicon cells were incubated with serial dilutions of compound (1) 2′C-methyl adenosine (2′CMeA) or IFNα for 3 days in the absence or presence of 40 mg/mL human serum albumin (HSA).

[2] = tested on: HCV genotype 1a (H77/neo) replicon; assay: HCV genotype 1a (H77/neo) replicon, quantitative real-time PCR assay; assay type: cell-based; details: 3 days, absence of HSA
Procedure: as §1

[3] = tested on: HCV genotype 2a subgenomic replicon; assay: HCV genotype 2a subgenomic replicon in Huh-7 cells, NS3 protease activity readout; assay type: cell-based
Procedure: (§2) The antiviral activity of compound (1) against HCV genotype 2a was tested in cells chronically infected with the genotype 2a virus as well as in cells replicating a subgenomic 2a replicon. Huh-7 cells containing chronically replicating HCV genotype 2a (J6/JFH-Rluc) virus or subgenomic replicons were cultured with compound (1) or 2′CMeA for 3 days in the absence of human serum albumin. After cultivation, the amount of luciferase in 2a-virus containing cells and HCV NS3 protease activity in the 2a replicon-containing cells was determined using Promega's luciferase assay and a novel time-resolved fluorescence assay, respectively.

[4] = tested on: HCV genotype 2a (J6/JFH-Rluc) virus; assay: Huh-7 cells chronically infected with HCV genotype 2a (J6/JFH-Rluc) virus, luciferase assay; assay type: cell-based; details: 3 days, absence of HSA
Procedure: as §2

Huh-7 lucneo cells = assay: Cytotoxicity, CellTiter-Glo Luminescence Cell Viability assay, Huh-7 lucneo; assay type: cell-based
SL3 cells = assay: Cytotoxicity, CellTiter-Glo Luminescence Cell Viability assay, SL3; assay type: cell-based; details: HCV replicon-containing cell line
MH4 cells = assay: Cytotoxicity, CellTiter-Glo Luminescence Cell Viability assay, MH4; assay type: cell-based; details: HCV replicon-containing cell line
HepG2 cells = assay: Cytotoxicity, CellTiter-Glo Luminescence Cell Viability assay, HepG2; assay type: cell-based
MT4 cells = assay: Cytotoxicity, CellTiter-Glo Luminescence Cell Viability assay, MT4; assay type: cell-based
HCV replicon cells = assay: In vitro combination study with IFN-α in replicon cells (MacSynergy); assay type: cell-based; details: MacSynergy analysis
Procedure: Pegylated interteron-α (PEG-IFN-α), in combination with ribavirin, represents the current standard of care for HCV-infected patients. In vitro combination studies of compound (1) and IFN-α were performed in replicon cells. Data was analyzed using the MacSynergy template developed by Prichard and Shipman.

[5] = Phase-1 first-in-human trial, pharmacokinetics; assay type: in vivo
Procedure: (§3) A randomized, double-blind, placebo controlled trial was designed to evaluate the safety/tolerability, phamacokinetics and antiviral activity of single (in Part A) and multiple (in Part B) doses of Compound (1) (oleic acid solution, above) in subjects chronically infected with HCV genotype 1 (GT-1) without decompensated cirrhosis.
(§4) In ongoing Part B, four successive cohorts of 12 subjects are randomized (10:2) to receive multiple ascending doses of Compound 1 (40 mg BID, 120 mg BID, 240 mg QD, 240 mg BID) or placebo, over 8 days.

HCV genotype 1 = assay: Phase-1 first-in-human trial, antiviral activity (HCV RNA decline); assay type: in vivo; details: following single-dose exposure
Procedure: as §3, §4

[6] = Phase-1 first-in-human trial, safety/tolerability; assay type: in vivo
Procedure: as §3, §4

[7] = Intrinsic solubility and pH solubility profile; assay type: physicochemical; details: pH 7.3
HCV replicon = assay: Anti-HCV replicon activity compared with prior art compound of formula (4); assay type: cell-based
Description: The anti-HCV replicon activity of compound (1) was compared to that of a prior art (WO 05/063744) compound, the compound of formula (4)

[8] = non-replicon-containing cell line

C[C@@]1(O)[C@H](O)[C@@H](CO)O[C@H]1n1cnc2c(N)ncnc21 [2′CMeA, 2′C-methyl adenosine, reference compound]
EC50 ([1]; 3 days, absence of HSA, read-out: EC50 HCV 1b-lucneo (subgenomic replicon)): 0.175 ± 0.07 µM | EC50 ([1]; read-out: EC50 HCV 1b-lucneo 40 mg/mL HSA, 3 days, presence of 40 mg/mL human serum albumin): 0.25 µM | EC50 [2]: 0.17 µM | EC50 ([3]; Huh-7 cells, 3 days, absence of HSA, read-out: EC50 HCV 2a (subgenomic replicon)): 1.61 ± 1.1 µM | EC50 ([4]; read-out: EC50 HCV-2a (reporter virus)): 0.194 ± 0.026 µM | CC50 (Huh-7 lucneo cells; HCV replicon-containing cell line): 7.2 ± 6 µM | CC50 (SL3 cells): 3.9 µM | CC50 (MH4 cells): 16 µM | CC50 (HepG2 cells; [8]): 24.3 ± 2.1 µM | CC50 (MT4 cells; [8]): 3.5 ± 1.9 µM

Fc1ccccc1-c1nc2ccn(Cc3ccc(-c4ccc(C(F)(F)F)cc4C(F)(F)F)nn3)cc-2n1 [Compound 1, 5-({6-[2,4-bis(trifluoromethyl)phenyl]pyridazin-3-yl}methyl)-2-(2-fluorophenyl)-5H-imidazo[4,5-c]pyridine]
selectivity index (CC50/EC50) ([1]; CC50 in cell lines versus EC50 in HCV-1b and HCV-1a replicons): 13,000-80,000 | EC50 ([3]; Hepatitis C virus, 72 h, Huh-7 cells, 3 days, absence of HSA, read-out: EC50 HCV 2a (subgenomic replicon)): 21.9 ± 19 µM | EC50 ([3]; Hepatitis C virus, Huh-7, 72 h, read-out: EC50 2a subgenomic replicon model): 21.9 µM | anti-HCV replicon activity against genotype 2a ([3]; compared with genotypes 1a and 1b): substantially less active | toxic effects at the highest concentration tested (Huh-7 lucneo cells; 50 μM, any of the cell lines Huh-7, SL3, MH4, HepG2, MT4): No toxic effects | cytotoxicity in Huh-7 cells (Huh-7 lucneo cells; human, Huh-7 lucneo cells (HCV replicon-containing)): > 50,000 nM | CC50 (SL3 cells): > 50 µM | CC50 (MH4 cells): > 50 µM | cytotoxicity in HepG2 cells (HepG2 cells; human): > 50,000 nM | cytotoxicity in MT4 cells (MT4 cells; human): > 50,000 nM | interaction between compound (1) and IFN-α (HCV replicon cells): additive interaction | mean concentration 24 hours after dosing relative to protein binding adjusted in vitro HCV GT-1b Replicon EC50 ([5]; 240 mg fasted single dose): ~7 fold | increase of systemic exposure when administered with a high fat meal ([5]; HCV GT-1 infected subjects, single dose with food versus fasted): approximately 2 fold | time of maximal antiviral effect (HCV genotype 1): 24 h | tolerability of single doses ([6]; single doses 40-480 mg, HCV GT-1 infected subjects, no serious or treatment-limiting adverse events): well tolerated | treatment emergent laboratory abnormalities ([6]; single doses, Part A): no Grade 3 or 4 treatment emergent laboratory abnormalities | most common adverse event ([6]; single doses, Part A, all AEs mild except one moderate headache): headache | pH solubility profile, geometric mean (3 lots) [7]: 0.7 micrograms/ml | times more potent than the compound of formula (4) (HCV replicon): about 330 times

IFN-α
EC50 HCV 1b-lucneo (subgenomic replicon) ([1]; 3 days, absence of HSA): 2 IU/mL | EC50 HCV-2a (reporter virus) [4]: 1.2 IU/mL
